Data from US10584115B2, “Substituted pyridine and pyrazine BMI-1 inhibitors” (PTC Therapeutics, Inc., priority 2013, dated 2020).
Read-outs that look alike come from different tables or passages of the source.

How the values were obtained:
Bmi-1 protein = assay: Sandwich ELISA Assay (Bmi-1 protein level in HT-1080 cells after compound treatment); assay type: cell-based
Procedure, shortened: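 HT-1080 cells exposed to compounds for 40–48 h at 37 °C (0.5% DMSO final), then lysed. Bmi-1 in lysates measured by sandwich ELISA (mouse monoclonal capture, rabbit anti-Bmi-1 detection, HRP anti-rabbit, TMB), read at OD450 with OD570 reference against a recombinant Bmi-1 standard curve (0–8000 pg/mL).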

[1] = Table 1, Bmi-1 sandwich ELISA, read-out: ELISA EC50 value for Bmi-1 protein
[2] = read-out: ELISA EC50 value for Bmi-1 protein, Table 1, Bmi-1 sandwich ELISA

Compound	melting point [°C]	EC50 (Bmi-1 protein; [1]) [nM]	EC50 (Bmi-1 protein; [2]) [nM]
COc1ccc(Nc2cccc(-c3c(C(F)(F)F)nc4ccc(OC)cn34)n2)cc1 [compound 104, N-(4-methoxyphenyl)-6-[6-methoxy-2-(trifluoromethyl)imidazo[1,2-a]pyridin-3-yl]pyridin-2-amine]	139 to 140	10 to 100	–
FC(F)Oc1ccc(Nc2cncc(-c3cccc4nc(C5CCC5)cn34)n2)cc1 [compound 115, 6-(2-cyclobutylimidazo[1,2-a]pyridin-5-yl)-N-[4-(difluoromethoxy)phenyl]pyrazin-2-amine]	252 to 253	10 to 100	–
COc1ccc(Nc2cncc(-c3cccc4nc(C5CCC5)cn34)n2)cc1 [compound 116, 6-(2-cyclobutylimidazo[1,2-a]pyridin-5-yl)-N-(4-methoxyphenyl)pyrazin-2-amine]	223 to 225	10 to 100	–
FC1(F)Oc2ccc(Nc3cncc(-c4cccc5nc(C6CCC6)cn45)n3)cc2O1 [compound 117, 6-(2-cyclobutylimidazo[1,2-a]pyridin-5-yl)-N-(2,2-difluoro-1,3-benzodioxol-5-yl)pyrazin-2-amine]	302 to 305	100 to 3000	–
Cc1noc(C)c1-c1cncc(Nc2ccc(C(F)(F)F)cc2)n1 [compound 127, 6-(3,5-dimethyl-1,2-oxazol-4-yl)-N-[4-(trifluoromethyl)phenyl]pyrazin-2-amine]	208 to 210	–	10 to 100
FC(F)(F)c1ccc(Nc2cncc(-c3c(C4CC4)nc4ccccn34)n2)cc1 [compound 129, 6-(2-cyclopropylimidazo[1,2-a]pyridin-3-yl)-N-[4-(trifluoromethyl)phenyl]pyrazin-2-amine]	215 to 217	–	1 to 10
FC(F)Oc1ccc(Nc2cncc(-c3c(C4CC4)nc4ccccn34)n2)cc1 [compound 130, 6-(2-cyclopropylimidazo[1,2-a]pyridin-3-yl)-N-[4-(difluoromethoxy)phenyl]pyrazin-2-amine]	208 to 210	1 to 10	–
Cc1cnc(Nc2cccc(-c3c(C(F)(F)F)nc4ccccn34)n2)s1 [compound 147, N-(5-methyl-1,3-thiazol-2-yl)-6-[2-(trifluoromethyl)imidazo[1,2-a]pyridin-3-yl]pyridin-2-amine]	270 to 271	100 to 3000	–
Cc1csc(Nc2cccc(-c3c(C(F)(F)F)nc4ccccn34)n2)n1 [compound 148, N-(4-methyl-1,3-thiazol-2-yl)-6-[2-(trifluoromethyl)imidazo[1,2-a]pyridin-3-yl]pyridin-2-amine]	259 to 261	10 to 100	–
Cc1nc(Nc2cccc(-c3c(C(F)(F)F)nc4ccccn34)n2)sc1C [compound 149, N-(4,5-dimethyl-1,3-thiazol-2-yl)-6-[2-(trifluoromethyl)imidazo[1,2-a]pyridin-3-yl]pyridin-2-amine]	227 to 228	100 to 3000	–
CCn1nc(C)c(-c2cncc(Nc3ccc(C(F)(F)F)cc3)n2)c1C [compound 175, 6-(1-ethyl-3,5-dimethyl-1H-pyrazol-4-yl)-N-[4-(trifluoromethyl)phenyl]pyrazin-2-amine]	78 to 79	–	1 to 10
COC(=O)c1ccc2nc(C(F)(F)F)c(-c3cncc(Nc4ccc(OC(F)F)cc4)n3)n2c1 [compound 178, methyl 3-(6-{[4-(difluoromethoxy)phenyl]amino}pyrazin-2-yl)-2-(trifluoromethyl)imidazo[1,2-a]pyridine-6-carboxylate]	227 to 229	100 to 3000	–
CCc1nc(C)cn1-c1cncc(Nc2ccc(C(F)(F)F)cc2)n1 [compound 179, 6-(2-ethyl-4-methyl-1H-imidazol-1-yl)-N-[4-(trifluoromethyl)phenyl]pyrazin-2-amine]	207 to 208	–	100 to 3000
CCc1nc(C)cn1-c1cncc(Nc2ccc(OC(F)F)cc2)n1 [compound 180, N-[4-(difluoromethoxy)phenyl]-6-(2-ethyl-4-methyl-1H-imidazol-1-yl)pyrazin-2-amine]	168 to 169	100 to 3000	–
Cc1nc2cc(F)ccc2n1-c1cncc(Nc2ccc(OC(F)F)cc2)n1 [compound 205, N-[4-(difluoromethoxy)phenyl]-6-(5-fluoro-2-methyl-1H-benzimidazol-1-yl)pyrazin-2-amine]	239 to 241	10 to 100	–
Cc1nc2cc(F)ccc2n1-c1cncc(Nc2ccc(OC(F)(F)F)cc2)n1 [compound 206, 6-(5-fluoro-2-methyl-1H-benzimidazol-1-yl)-N-[4-(trifluoromethoxy)phenyl]pyrazin-2-amine]	248 to 250	100 to 3000	–
Fc1ccc2c(c1)nc(C1CC1)n2-c1cncc(Nc2ccc(OC(F)F)cc2)n1 [compound 227, 6-(2-cyclopropyl-5-fluoro-1H-benzimidazol-1-yl)-N-[4-(difluoromethoxy)phenyl]pyrazin-2-amine]	188 to 190	10 to 100	–
Cc1nc2ccc(F)cc2n1-c1cncc(Nc2ccc(C(F)(F)F)cc2)n1 [compound 228, 6-(6-fluoro-2-methyl-1H-benzimidazol-1-yl)-N-[4-(trifluoromethyl)phenyl]pyrazin-2-amine]	243 to 245	–	1 to 10
Cc1nc2ccc(F)cc2n1-c1cncc(Nc2ccc(OC(F)F)cc2)n1 [compound 229, N-[4-(difluoromethoxy)phenyl]-6-(6-fluoro-2-methyl-1H-benzimidazol-1-yl)pyrazin-2-amine]	200 to 202	1 to 10	–
Cc1nc2ccc(F)cc2n1-c1cncc(Nc2ccc(OC(F)(F)F)cc2)n1 [compound 230, 6-(6-fluoro-2-methyl-1H-benzimidazol-1-yl)-N-[4-(trifluoromethoxy)phenyl]pyrazin-2-amine]	215 to 217	10 to 100	–
Cc1nc2ccc(F)cn2c1-c1cc(C#N)cc(Nc2ccc(C(F)(F)F)cc2)n1 [compound 247, 2-(6-fluoro-2-methylimidazo[1,2-a]pyridin-3-yl)-6-{[4-(trifluoromethyl)phenyl]amino}pyridine-4-carbonitrile]	241 to 243	1 to 10	–

Further lines, with some results ahead:

melting point [°C]	EC50 (Bmi-1 protein; [1]) [nM]	Compound	EC50 (Bmi-1 protein; [2]) [nM]
288 to 290	100 to 3000	FC(F)(F)c1ccc(Nc2cncc(-c3cccc4nc(C5CCC5)cn34)n2)cc1 [compound 114, 6-(2-cyclobutylimidazo[1,2-a]pyridin-5-yl)-N-[4-(trifluoromethyl)phenyl]pyrazin-2-amine]	–
201 to 202	1 to 10	Cc1nn(C)c(C)c1-c1cncc(Nc2ccc(C(F)(F)F)cc2)n1 [compound 128, N-[4-(trifluoromethyl)phenyl]-6-(1,3,5-trimethyl-1H-pyrazol-4-yl)pyrazin-2-amine]	–
218 to 219	1 to 10	FC(F)(F)c1ccc(Nc2cncc(-c3c(C4CCC4)nc4ccccn34)n2)cc1 [compound 131, 6-(2-cyclobutylimidazo[1,2-a]pyridin-3-yl)-N-[4-(trifluoromethyl)phenyl]pyrazin-2-amine]	–
48 to 50	10 to 100	Cc1nn(C)c(C)c1-c1cccc(Nc2ccc(C(F)(F)F)cc2)n1 [compound 145, N-[4-(trifluoromethyl)phenyl]-6-(1,3,5-trimethyl-1H-pyrazol-4-yl)pyridin-2-amine]	–
71 to 72	10 to 100	Cc1nn(C)c(C)c1-c1cccc(Nc2ccc(OC(F)F)cc2)n1 [compound 146, N-[4-(difluoromethoxy)phenyl]-6-(1,3,5-trimethyl-1H-pyrazol-4-yl)pyridin-2-amine]	–
317 to 320	1 to 10	FC(F)(F)c1nc2ccccn2c1-c1cncc(Nc2ccc(C3CC3)cc2)n1 [compound 165, N-(4-cyclopropylphenyl)-6-[2-(trifluoromethyl)imidazo[1,2-a]pyridin-3-yl]pyrazin-2-amine]	–
70 to 71	10 to 100	CCS(=O)(=O)n1nc(C)c(-c2cncc(Nc3ccc(C(F)(F)F)cc3)n2)c1C [compound 176, 6-[1-(ethylsulfonyl)-3,5-dimethyl-1H-pyrazol-4-yl]-N-[4-(trifluoromethyl)phenyl]pyrazin-2-amine]	–
180 to 182	< 1	Cc1nc2ccccn2c1-c1cncc(Nc2ccc(C(F)(F)F)cc2)n1 [compound 202, 6-(2-methylimidazo[1,2-a]pyridin-3-yl)-N-[4-(trifluoromethyl)phenyl]pyrazin-2-amine]	–
272 to 275	10 to 100	Cc1nc2cc(F)ccc2n1-c1cncc(Nc2ccc(C(F)(F)F)cc2)n1 [compound 204, 6-(5-fluoro-2-methyl-1H-benzimidazol-1-yl)-N-[4-(trifluoromethyl)phenyl]pyrazin-2-amine]	–
160 to 162	1 to 10	Cc1nc2ccc(F)cn2c1-c1cncc(Nc2ccc(C(F)(F)F)cc2)n1 [compound 244, 6-(6-fluoro-2-methylimidazo[1,2-a]pyridin-3-yl)-N-[4-(trifluoromethyl)phenyl]pyrazin-2-amine]	–
171 to 173	1 to 10	Cc1nc2ccc(F)cn2c1-c1cncc(Nc2ccc(OC(F)F)cc2)n1 [compound 245, N-[4-(difluoromethoxy)phenyl]-6-(6-fluoro-2-methylimidazo[1,2-a]pyridin-3-yl)pyrazin-2-amine]	–
163 to 165	1 to 10	Cc1nc2ccc(F)cn2c1-c1cncc(Nc2ccc(OC(F)(F)F)cc2)n1 [compound 246, 6-(6-fluoro-2-methylimidazo[1,2-a]pyridin-3-yl)-N-[4-(trifluoromethoxy)phenyl]pyrazin-2-amine]	–
